Reference: patent US12157740B2, “Triazolopyridines and triazolopyrimidines that lower stress-induced p-tau” (NantNeuro, LLC, priority 2015, dated 2024)
pKi: −log10 of the molar value.

Legend:
CRFR2 = target: T1, CRFR2 (Homo sapiens, UniProt Q13324); assay: binding to CRFR2 (Ki)
T1 sequence (Q13324 1-411): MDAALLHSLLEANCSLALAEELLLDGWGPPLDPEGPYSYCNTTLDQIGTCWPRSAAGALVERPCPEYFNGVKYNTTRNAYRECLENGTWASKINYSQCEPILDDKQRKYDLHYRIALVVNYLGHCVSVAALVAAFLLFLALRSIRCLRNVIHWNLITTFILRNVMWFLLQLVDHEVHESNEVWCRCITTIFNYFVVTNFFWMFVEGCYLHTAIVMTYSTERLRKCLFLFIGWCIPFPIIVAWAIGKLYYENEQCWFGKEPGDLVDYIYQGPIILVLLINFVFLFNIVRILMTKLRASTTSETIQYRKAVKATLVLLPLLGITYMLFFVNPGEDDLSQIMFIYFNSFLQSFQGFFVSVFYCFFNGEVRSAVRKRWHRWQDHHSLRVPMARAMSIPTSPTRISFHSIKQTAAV

J20 mice [1] = assay: J03 pilot study #2 in J20 mice (oral, longer duration); assay type: in vivo, mouse
Description: (§1) Animal experiments were performed using J20 mice. The J20 mouse is a model of for Alzheimer's disease. This model overexpresses human APP with two mutations linked to familial Alzheimer's disease (the APP KM670/671NL (Swedish) and 5APP V717F (Indiana) mutations).
Based on these promising results, the study was repeated (pilot study #2) with oral delivery and a longer duration.

p-tau = assay: cortisol-induced p-tau increase in vitro (screen of clinical library of CRF-1 inhibitors); assay type: cell-based
Description: To identify therapeutic candidates, a clinical library of CRF-1 inhibitors to was screened to determine their effects on cortisol-induced p-tau increases. […] J03 was shown specifically to inhibit stress-induced p-tau increases by cortisol in vitro.

tau and p-tau = assay: effect of J03 and J19 on tau and p-tau (FIG. 39E-39F, system not given); conditions: FIG. 39E
Description: JI9 decreased tau and both J03 and JI9 decreased p-tau (FIG. 39E). Therefore, while the p-tau/tau ratio looks unchanged for J19 FIG. 39F. This is due to the tau decrease and not due to a lack of effect.

J20 mice [2] = assay: J03 pilot study #1 in J20 mice (SQ, 12 days); assay type: in vivo, mouse
Description: as §1
In pilot study #1, J20 mice housed singly were treated by SQ injection of J03 in PEG/b-MCD at 10 mkd for 12 days. NOR analysis of object memory (N=5/group) was performed. The results are illustrated in FIGS. 10D-10I. […] There was no difference in Aβ1-40 (FIG. 10E), but a decrease in Aβ1-42 (FIG. 10F).

[3] = system: tau and p-tau in SH-Sy5Y cells; assay: screens for tau and p-tau levels in SH-Sy5Y cells (no CRF stated); assay type: cell-based; conditions: screen of FIG. 28B
Description: As described below, in vitro studies were performed using SHSY-5Y cells. These cells are a useful neurological model that differentiate into cells with morphological and biochemical characteristics of mature neurons including mature isoforms of tau. […]

J20 mice [4] = assay: J17 pilot study in J20 mice (oral, 28 days); assay type: in vivo, mouse; conditions: oral 28 days
Description: as §1
In a J17 pilot study (#1 pilot study) male and female J20 mice were housed singly and treated with J17 at 10 rnkd by oral delivery for 28 days.

[5] = system: tau and phospho-tau in SHSY-5Y cells; assay: CRF-induced tau, p-tau and sAPPα changes in SHSY-5Y cells; assay type: cell-based; conditions: for p-tau/tau ratio: FIG. 32C
[6] = in vivo pharmacokinetics, plasma and brain levels; parameters: species or system mouse
[7] = oral delivery, longer duration, J20 mice
[8] = CRF-1 at 100 nM for 3 days, compound at 20 nM, FIG. 29A

CCC(COC)n1nnc2c(Nc3ccc(OC)cc3C)nc(C)cc21 (stereo not drawn) [J03, N-(4-Methoxy-2-methylphenyl)-1-[1-(methoxymethyl)propyl]-6-methyl-1H-1,2,3-triazolo[4,5-c]pyridine-4-amine]
pKi (CRFR2): < 5.00 | novel location assay / preference (J20 mice [1]; [7]): performed well | novel object assay (J20 mice [1]; [7]): performed well | sAPPα (J20 mice [1]; oral, FIG. 13A): increased slightly | sAPPβ (J20 mice [1]; oral, FIG. 13B): unchanged | sAPPα/sAPPβ ratio (J20 mice [1]; oral, FIG. 13C): slightly increased | Aβ1-40 (J20 mice [1]; oral, FIG. 14A): unchanged | Aβ1-42 (J20 mice [1]; oral, FIG. 14B): unchanged | Aβ1-40/Aβ1-42 ratio (J20 mice [1]; oral, FIG. 14C): unchanged | p-tau (J20 mice [1]; oral, decrease reached statistical significance, FIG. 16): decreased | stress-induced p-tau increases by cortisol (p-tau): inhibit | p-tau (tau and p-tau): decreased | NOR analysis of object memory (behavior) (J20 mice [2]; J20 mice housed singly, SQ 10 mkd in PEG/b-MCD for 12 days, FIG. 10D): slight improvement | P-tau (J20 mice [2]; SQ 10 mkd, 12 days): significantly lower | Aβ1-40 (J20 mice [2]; SQ 10 mkd, 12 days, FIG. 10E): no difference | Aβ1-42 (J20 mice [2]; SQ 10 mkd, 12 days, FIG. 10F): decrease | Aβ1-40/1-42 ratio (J20 mice [2]; SQ 10 mkd, 12 days, FIG. 10G): significantly increased | SAPP (J20 mice [2]; SQ 10 mkd, 12 days, FIG. 10H): very slightly increased | sAPP/Aβ1-42 ratio (J20 mice [2]; SQ 10 mkd, 12 days, FIG. 10I): very slightly increased | ratio (p-tau and tau) (J20 mice [2]; SQ 10 mkd, 12 days, great individual variation): slightly higher | total tau (J20 mice [2]; SQ 10 mkd, 12 days, largely due to one mouse, FIG. 11A): decreased | p-tau [3]: neither J14 nor J03 decreased | total tau [3]: neither J14 nor J03 decreased | activity (J20 mice [4]; male and female J20 mice housed singly, not significant, FIG. 24A): lowered | novel object preference, overall (J20 mice [4]; all mice, FIG. 24B): increased | sAPPα (J20 mice [4]; both genders, FIG. 25A): increase | ratio sAPPα/sAPPβ (J20 mice [4]; males, FIG. 25C): slight increase | p-tau [5, 8]: decreased | total tau [5, 8]: decreased | tau after exposure to CRF ([5]; FIG. 21D): decreased | p-tau after exposure to CRF ([5]; FIG. 21E): decreased | tau increases induced by CRF ([5]; SHSY-5Y cells cultured without serum, CRF at increasing concentrations, FIG. 10A): reduces | phospho-tau (p-tau) increases induced by CRF ([5]; SHSY-5Y cells cultured without serum, CRF at increasing concentrations, FIG. 10B): reduces | sAPPα increase, significance ([5]; at 100 nM CRF, FIG. 32D): reached significance | p-tau/tau ratio ([5]; at 50 and 100 nM CRF): highly significantly decreased | tau ([5]; in the absence of CRF and in the presence of 100 nM CRF, FIG. 32A): significantly decreased | p-tau/tau ratio ([5]; in the absence of CRF): decreased | p-tau ([5]; in the presence and absence of CRF, FIG. 32B): significantly reduced | sAPPα after exposure to CRF ([5]; versus control, FIG. 21C): lower | sAPPα ([5]; with and without CRF, FIG. 32D): trend for sAPPα to be higher | brain levels ([6]; 10 mk subcutaneous (SQ) single injection, J20 mice, FIG. 10C): low | brain levels at the peak after oral delivery, compared with SQ ([6]; oral delivery by feeding (not gavage) at 10 mg/kg): slightly higher
